Laboratory results taken from ChEMBL document CHEMBL1201862, “PubChem BioAssay data set” (2004).
Calls of active or inactive are those of the source.

Assays:
BJ [1] = experiment: cells; type: functional, cell-based; conditions: Homo sapiens
[2] = cytotoxicity toward DRD oncogenic fibroblasts, dose response, cell-based, non-viral oncogenic, luminescence (AID 1934); type: functional; conditions: Homo sapiens
BJ [3] = experiment: cytotoxicity toward BJ-TERT fibroblasts, dose response, cell-based, RAS-independent, luminescence (AID 1933); type: functional; conditions: Homo sapiens
BJ [4] = experiment: cytotoxicity toward BJ-TERT-LT-ST fibroblasts, dose response, cell-based, RAS-independent, luminescence (AID 1935); type: functional; conditions: Homo sapiens;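 also: BJ fibroblasts immortalized with TERT plus LT and ST oncogenes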
cells = type: functional
[5] = target: T1, Short transient receptor potential channel 4 (Mus musculus, UniProt Q9QUQ5); experiment: mouse TRPC4 channel inhibitors, dose response, cell-based, HEK293 TRPC4/mu-opioid, Fluo-4 calcium (AID 434942); type: functional;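 also: potency of inhibitors blocking the TRPC4 calcium response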
T1 sequence (Q9QUQ5 whole entry): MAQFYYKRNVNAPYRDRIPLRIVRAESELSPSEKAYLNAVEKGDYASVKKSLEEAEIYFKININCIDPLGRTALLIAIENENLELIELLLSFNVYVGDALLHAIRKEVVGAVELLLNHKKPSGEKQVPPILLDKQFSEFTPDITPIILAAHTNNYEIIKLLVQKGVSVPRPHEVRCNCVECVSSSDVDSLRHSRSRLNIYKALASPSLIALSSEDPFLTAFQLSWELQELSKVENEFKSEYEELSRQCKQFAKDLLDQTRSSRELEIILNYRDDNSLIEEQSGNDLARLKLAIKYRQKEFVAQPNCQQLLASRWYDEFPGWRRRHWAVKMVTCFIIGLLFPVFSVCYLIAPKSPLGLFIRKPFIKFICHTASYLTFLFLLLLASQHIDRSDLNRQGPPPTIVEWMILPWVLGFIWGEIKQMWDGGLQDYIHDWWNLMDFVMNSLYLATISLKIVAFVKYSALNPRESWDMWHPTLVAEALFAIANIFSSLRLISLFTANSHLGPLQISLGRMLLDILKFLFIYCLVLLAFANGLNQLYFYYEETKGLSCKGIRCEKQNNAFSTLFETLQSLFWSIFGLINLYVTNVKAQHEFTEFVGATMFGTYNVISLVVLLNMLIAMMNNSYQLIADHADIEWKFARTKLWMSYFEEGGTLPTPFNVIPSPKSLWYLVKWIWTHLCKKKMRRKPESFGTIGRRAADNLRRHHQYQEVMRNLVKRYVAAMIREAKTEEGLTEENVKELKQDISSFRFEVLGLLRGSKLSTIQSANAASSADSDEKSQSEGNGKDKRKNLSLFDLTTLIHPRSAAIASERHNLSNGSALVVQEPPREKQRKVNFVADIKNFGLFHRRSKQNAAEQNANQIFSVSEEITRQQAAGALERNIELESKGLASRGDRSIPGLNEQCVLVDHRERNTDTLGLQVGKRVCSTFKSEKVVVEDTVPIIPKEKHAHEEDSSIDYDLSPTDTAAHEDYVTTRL

[6] = THP-1 cell cytotoxicity, dose response, cytotoxicity control for non-replicating M. tuberculosis project (AID 489025); type: functional
[7] = Vero E6 cell cytotoxicity, dose response, cytotoxicity control for non-replicating M. tuberculosis project, secondary assay (AID 492998); type: functional, VeroE6; conditions: Vero C1008
[8] = HepG2 cell cytotoxicity, dose response, cytotoxicity control for non-replicating M. tuberculosis project (AID 489018); type: functional; conditions: Mycobacterium tuberculosis
[9] = tested on: Streptococcus sp. 'group A'; experiment: growth inhibition of control SK(-) GAS strain, dose response, counter-screen for streptokinase expression inhibitor project, luminescence, kanamycin, BacTiterGlo, confirmation (AID 1900); type: functional, organism-based
Streptococcus = experiment: Group A Streptococcus viability loss, dose response, counter-screen for streptokinase expression inhibitor project, luminescence, BacTiterGlo (AID 1915); type: functional, organism-based;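 also: potency for reduction of bacterial viability or growth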
[10] = Luminescence Cell-Based Dose Retest to Confirm Inhibitors of Cancer Stem Cells. [Related pubchem assays (depositor defined):AID2717, AID2721]; type: functional; conditions: Homo sapiens
Cytochrome P450 3A4 = Cytochrome P450 3A4 (Homo sapiens, UniProt P08684);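 also: CYP3A4 tested as one member of a cytochrome P450 panel screen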
[11] = target: Heat shock protein HSP 90-alpha (Homo sapiens, UniProt P07900); type: functional, organism-based
Cytochrome P450 2C19 = Cytochrome P450 2C19 (Homo sapiens, UniProt P33261); experiment: Cytochrome panel assay with activity outcomes. Panel member name: p450-cyp2c19 Compounds with AC50 equal or less than 10 uM are considered active; type: functional; conditions: read-out: AC50
Cytochrome P450 2C9 = Cytochrome P450 2C9 (Homo sapiens, UniProt P11712)
Vero = experiment: cells; type: functional; conditions: Chlorocebus sabaeus
Leucine aminopeptidase = target: T2, Leucine aminopeptidase (Plasmodium falciparum 3D7, UniProt Q8IL11); experiment: P. falciparum M17LAP inhibitors, primary screen, biochemical, fluorogenic H-Leu-NHMec substrate, 1536-well (AID 1619); type: functional
T2 sequence (Q8IL11 whole entry): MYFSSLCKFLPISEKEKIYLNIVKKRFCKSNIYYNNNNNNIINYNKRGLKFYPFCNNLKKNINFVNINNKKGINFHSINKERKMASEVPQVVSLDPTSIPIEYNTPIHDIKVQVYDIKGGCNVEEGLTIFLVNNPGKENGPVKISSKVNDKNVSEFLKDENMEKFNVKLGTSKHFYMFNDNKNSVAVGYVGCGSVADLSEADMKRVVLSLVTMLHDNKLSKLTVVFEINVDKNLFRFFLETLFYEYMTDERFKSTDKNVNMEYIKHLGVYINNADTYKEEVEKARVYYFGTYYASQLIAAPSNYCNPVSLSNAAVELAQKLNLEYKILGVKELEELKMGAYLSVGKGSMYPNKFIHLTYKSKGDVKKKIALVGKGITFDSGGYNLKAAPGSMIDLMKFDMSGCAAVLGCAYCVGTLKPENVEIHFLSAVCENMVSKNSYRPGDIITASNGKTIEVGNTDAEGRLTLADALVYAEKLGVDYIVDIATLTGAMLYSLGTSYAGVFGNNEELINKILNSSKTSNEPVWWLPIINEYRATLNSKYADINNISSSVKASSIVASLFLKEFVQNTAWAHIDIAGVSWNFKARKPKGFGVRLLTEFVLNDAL

Genome polyprotein = Genome polyprotein (dengue virus type 2, UniProt P29990); experiment: Dengue-2 NS5 methyltransferase inhibitors, primary screen, biochemical, confirmation dose response (AID 588689); type: functional
[12] = target: FAD-linked sulfhydryl oxidase ALR (Homo sapiens, UniProt P55789); experiment: inhibitors of human ALR sulfhydryl oxidase, dose response, biochemical, H2O2 detection, luminescence, cherry-pick (AID 493248)
Streptokinase A = target: T3, Streptokinase A (Streptococcus pyogenes serotype M1, UniProt P10520); experiment: S. pyogenes streptokinase expression inhibitors, potency, dose response, plasminogen activation absorbance, OD405 (AID 1914); type: functional, Streptococcus pyogenes M1 GAS;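 also: secreted streptokinase activity via plasminogen activation per viability signal from cell pellet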
T3 sequence (P10520 whole entry): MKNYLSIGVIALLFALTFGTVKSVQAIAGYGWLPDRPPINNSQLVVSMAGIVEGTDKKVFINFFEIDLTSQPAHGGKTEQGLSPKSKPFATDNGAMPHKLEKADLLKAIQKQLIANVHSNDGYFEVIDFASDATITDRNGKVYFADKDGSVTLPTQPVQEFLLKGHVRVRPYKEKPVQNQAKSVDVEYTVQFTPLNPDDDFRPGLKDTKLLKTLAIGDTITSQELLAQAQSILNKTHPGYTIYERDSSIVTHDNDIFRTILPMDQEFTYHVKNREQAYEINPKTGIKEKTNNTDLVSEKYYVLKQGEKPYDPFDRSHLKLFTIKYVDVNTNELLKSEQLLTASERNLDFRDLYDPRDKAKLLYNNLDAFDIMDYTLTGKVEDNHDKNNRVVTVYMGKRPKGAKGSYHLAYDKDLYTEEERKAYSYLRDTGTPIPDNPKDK

Fatty acid synthase [13] = target: T4, Fatty acid synthase (Homo sapiens, UniProt P49327); experiment: FAS thioesterase domain inhibitors, dose response, biochemical, endpoint fluorescence intensity, uHTS hits (AID 624327); type: functional;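 also: fluorescence from hydrolysis of an O-methyl fluorescein acyl ester substrate by the enzyme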
Fatty acid synthase [14] = target: T4, Fatty acid synthase; experiment: FAS thioesterase domain inhibitors, dose response, biochemical, kinetic fluorescence intensity (AID 624326); type: functional;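 also: rate of fluorescence rise from hydrolysis of a fluorogenic O-methyl fluorescein ester substrate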
INS1 = experiment: beta cell apoptosis inhibitors, cytokine rescue, dose response, luminescence, retest (AID 449756); type: functional, cell-based; conditions: Rattus norvegicus;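 also: cell death triggered by IL-1 beta plus TNF-alpha plus IFN-gamma mixture; protective hits raise ATP signal compared with cytokine alone wells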

T4 sequence (P49327 whole entry, the tested form may be a part): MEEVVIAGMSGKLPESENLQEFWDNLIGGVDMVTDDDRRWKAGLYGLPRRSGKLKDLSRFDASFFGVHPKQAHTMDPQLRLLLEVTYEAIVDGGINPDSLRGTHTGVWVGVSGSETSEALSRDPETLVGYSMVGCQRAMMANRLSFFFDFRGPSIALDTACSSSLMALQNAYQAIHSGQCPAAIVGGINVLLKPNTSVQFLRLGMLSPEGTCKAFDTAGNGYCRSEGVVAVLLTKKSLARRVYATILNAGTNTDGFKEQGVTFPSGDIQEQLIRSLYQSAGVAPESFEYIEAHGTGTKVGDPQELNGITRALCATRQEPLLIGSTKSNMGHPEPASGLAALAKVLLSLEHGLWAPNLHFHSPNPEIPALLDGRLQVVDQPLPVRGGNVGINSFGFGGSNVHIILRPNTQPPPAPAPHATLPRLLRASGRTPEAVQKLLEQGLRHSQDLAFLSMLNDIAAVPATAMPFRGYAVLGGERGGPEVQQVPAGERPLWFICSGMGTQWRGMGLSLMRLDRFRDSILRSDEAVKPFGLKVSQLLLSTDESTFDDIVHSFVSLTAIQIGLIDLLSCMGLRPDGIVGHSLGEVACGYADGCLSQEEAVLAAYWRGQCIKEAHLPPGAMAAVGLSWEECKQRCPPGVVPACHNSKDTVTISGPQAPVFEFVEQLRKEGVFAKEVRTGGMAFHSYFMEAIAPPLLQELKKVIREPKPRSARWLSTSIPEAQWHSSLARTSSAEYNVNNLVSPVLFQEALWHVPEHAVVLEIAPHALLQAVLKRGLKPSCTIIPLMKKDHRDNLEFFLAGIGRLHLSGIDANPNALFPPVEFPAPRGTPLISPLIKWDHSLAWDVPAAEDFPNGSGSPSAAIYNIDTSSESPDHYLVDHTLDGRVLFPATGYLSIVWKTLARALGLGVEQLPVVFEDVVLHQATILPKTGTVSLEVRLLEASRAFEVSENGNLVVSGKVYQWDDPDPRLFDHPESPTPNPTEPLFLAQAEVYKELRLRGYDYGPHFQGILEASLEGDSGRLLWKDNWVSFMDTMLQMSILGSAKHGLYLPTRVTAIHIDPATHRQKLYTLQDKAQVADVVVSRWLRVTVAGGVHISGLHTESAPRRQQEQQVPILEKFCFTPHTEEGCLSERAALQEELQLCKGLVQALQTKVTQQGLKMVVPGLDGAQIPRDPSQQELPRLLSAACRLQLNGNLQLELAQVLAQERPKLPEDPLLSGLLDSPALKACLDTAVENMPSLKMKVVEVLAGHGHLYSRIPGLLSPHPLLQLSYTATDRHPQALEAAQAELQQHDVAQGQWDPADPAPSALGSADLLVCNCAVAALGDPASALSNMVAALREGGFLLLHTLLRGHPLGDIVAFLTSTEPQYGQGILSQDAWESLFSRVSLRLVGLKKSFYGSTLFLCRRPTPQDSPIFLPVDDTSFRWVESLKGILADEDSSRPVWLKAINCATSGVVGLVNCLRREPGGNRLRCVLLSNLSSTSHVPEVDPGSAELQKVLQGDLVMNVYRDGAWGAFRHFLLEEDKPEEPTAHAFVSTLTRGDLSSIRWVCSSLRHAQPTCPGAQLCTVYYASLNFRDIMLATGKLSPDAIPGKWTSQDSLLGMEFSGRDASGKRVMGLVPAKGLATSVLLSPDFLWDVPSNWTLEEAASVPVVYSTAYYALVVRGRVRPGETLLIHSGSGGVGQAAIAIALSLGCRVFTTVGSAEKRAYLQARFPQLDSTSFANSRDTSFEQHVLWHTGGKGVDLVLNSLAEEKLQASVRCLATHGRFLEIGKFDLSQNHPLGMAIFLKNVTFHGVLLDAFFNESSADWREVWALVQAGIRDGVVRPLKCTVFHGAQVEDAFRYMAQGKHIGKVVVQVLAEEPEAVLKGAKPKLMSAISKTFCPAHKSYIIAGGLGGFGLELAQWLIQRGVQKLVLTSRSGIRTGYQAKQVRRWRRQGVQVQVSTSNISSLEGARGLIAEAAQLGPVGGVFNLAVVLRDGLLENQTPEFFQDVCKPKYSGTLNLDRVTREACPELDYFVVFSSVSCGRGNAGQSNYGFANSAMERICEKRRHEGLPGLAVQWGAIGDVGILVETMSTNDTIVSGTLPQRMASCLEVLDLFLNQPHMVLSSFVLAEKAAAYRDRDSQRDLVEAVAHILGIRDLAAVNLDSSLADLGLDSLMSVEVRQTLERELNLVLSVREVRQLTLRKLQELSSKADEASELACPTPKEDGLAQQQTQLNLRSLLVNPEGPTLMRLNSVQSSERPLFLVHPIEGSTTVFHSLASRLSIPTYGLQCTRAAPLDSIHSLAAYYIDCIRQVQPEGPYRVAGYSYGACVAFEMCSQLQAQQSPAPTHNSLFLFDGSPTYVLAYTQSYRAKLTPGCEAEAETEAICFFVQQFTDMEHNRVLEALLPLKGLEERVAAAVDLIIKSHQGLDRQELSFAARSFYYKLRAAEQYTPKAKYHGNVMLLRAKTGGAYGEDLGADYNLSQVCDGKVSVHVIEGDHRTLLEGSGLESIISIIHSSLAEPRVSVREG
Chain of Genome polyprotein (P29990 2492-3391 limits assumed): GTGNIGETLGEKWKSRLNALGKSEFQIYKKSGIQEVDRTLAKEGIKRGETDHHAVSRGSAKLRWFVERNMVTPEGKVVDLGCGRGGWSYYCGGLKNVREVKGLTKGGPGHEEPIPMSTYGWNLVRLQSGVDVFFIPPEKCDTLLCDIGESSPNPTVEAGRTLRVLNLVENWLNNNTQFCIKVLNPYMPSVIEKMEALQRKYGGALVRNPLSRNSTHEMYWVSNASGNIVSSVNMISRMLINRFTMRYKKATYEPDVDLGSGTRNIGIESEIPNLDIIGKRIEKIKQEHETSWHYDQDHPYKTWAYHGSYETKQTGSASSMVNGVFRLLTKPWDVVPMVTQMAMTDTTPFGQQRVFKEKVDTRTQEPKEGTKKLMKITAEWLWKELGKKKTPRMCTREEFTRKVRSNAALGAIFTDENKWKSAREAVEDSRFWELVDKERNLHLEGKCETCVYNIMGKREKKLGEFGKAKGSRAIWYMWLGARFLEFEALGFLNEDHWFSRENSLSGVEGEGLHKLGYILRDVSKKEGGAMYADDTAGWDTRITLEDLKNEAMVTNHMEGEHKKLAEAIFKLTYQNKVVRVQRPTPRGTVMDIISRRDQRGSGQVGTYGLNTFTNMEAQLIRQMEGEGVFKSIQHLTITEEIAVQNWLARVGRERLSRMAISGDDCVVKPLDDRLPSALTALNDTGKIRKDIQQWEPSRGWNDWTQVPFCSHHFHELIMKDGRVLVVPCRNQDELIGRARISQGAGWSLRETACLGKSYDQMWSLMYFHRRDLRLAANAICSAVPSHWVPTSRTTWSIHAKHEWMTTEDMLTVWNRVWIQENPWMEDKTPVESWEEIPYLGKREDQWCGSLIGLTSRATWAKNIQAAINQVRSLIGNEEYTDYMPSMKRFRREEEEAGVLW
Chain of Cytochrome P450 2C19 (P33261 whole entry): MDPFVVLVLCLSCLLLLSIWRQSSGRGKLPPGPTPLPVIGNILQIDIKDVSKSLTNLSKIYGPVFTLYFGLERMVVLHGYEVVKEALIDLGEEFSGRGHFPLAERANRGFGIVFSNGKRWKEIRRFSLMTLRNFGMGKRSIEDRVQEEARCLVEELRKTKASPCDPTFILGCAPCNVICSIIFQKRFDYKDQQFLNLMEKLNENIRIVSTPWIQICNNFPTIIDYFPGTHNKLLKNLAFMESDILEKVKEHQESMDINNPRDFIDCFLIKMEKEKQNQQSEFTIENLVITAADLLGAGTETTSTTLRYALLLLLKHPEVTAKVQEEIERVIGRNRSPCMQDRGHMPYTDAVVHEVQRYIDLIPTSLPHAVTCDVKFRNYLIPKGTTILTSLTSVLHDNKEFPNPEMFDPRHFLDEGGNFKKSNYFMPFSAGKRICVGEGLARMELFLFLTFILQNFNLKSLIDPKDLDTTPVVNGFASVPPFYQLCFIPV
Chain of Cytochrome P450 3A4 (P08684 whole entry): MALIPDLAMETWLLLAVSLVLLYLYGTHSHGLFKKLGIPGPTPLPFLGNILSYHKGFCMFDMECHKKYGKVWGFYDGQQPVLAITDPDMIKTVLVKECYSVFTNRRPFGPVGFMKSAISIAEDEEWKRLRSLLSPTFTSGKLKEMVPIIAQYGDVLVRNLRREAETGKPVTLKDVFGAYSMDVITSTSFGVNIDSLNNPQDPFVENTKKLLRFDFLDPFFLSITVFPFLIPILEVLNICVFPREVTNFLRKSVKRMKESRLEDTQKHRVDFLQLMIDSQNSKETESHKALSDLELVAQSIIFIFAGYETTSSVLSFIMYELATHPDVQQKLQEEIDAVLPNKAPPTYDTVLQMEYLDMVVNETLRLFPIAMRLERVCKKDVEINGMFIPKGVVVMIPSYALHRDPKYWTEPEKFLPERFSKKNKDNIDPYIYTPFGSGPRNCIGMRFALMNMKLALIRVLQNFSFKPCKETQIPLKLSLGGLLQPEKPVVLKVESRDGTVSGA
Chain of Cytochrome P450 2C9 (P11712 whole entry): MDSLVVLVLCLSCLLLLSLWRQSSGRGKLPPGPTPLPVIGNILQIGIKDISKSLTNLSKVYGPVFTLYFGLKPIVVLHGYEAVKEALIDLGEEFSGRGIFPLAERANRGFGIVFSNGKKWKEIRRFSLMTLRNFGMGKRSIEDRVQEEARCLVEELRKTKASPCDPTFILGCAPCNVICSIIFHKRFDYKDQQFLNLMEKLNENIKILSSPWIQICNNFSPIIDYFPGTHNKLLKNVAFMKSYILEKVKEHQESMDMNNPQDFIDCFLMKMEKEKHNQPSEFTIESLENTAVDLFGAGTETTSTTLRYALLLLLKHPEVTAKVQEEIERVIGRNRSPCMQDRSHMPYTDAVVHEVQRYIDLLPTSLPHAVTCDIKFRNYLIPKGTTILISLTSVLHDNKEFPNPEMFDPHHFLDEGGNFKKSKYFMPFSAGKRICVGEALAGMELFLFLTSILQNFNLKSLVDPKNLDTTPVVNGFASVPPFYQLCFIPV
Chain of FAD-linked sulfhydryl oxidase ALR (P55789 whole entry): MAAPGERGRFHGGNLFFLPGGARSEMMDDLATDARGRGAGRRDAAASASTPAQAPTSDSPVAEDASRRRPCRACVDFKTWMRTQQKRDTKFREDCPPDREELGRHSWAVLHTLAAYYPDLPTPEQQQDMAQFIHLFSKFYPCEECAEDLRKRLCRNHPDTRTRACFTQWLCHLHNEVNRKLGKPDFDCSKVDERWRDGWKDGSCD

## C=CCNC(=O)c1ccc(NC(=O)C2=CSCCO2)cc1
BJ [1]
  EC50: 111 µM (active)
[2]
  EC50: 60.9 µM (active)
BJ [3]
  EC50: 24.8 µM (active)
BJ [4]
  EC50: > 150 µM (not active)

## CCOC(=O)C1(CCc2ccccc2)CCN(Cc2ccccn2)CC1
cells
  IC50: 3.96 µM (active)
[5]
  EC50: 4.22 µM (active)

## CC(C)Sc1nc2sc3c(c2c2nnc(SCC(=O)NCc4ccco4)n12)CCCC3
[5]
  EC50: 3.76 µM (active)

## COc1ccc(C(=O)Oc2c(CN3CCOCC3)cc(Cl)c3cccnc23)cc1OC
[6]
  CC50: 12.2 µM (active)
[7]
  CC50: 8.82 µM (active)
[8]
  CC50: 15 µM (active)
cells
  IC50: 34.6 µM (active)

## Cn1ncc2c(Nc3cccc(Cl)c3)nc(Nc3cccc(Cl)c3)nc21
[9]
  EC50: 2.68 µM (active)
Streptococcus
  EC50: 2.92 µM (active)
[10]
  AC50: 2.88 µM (active)
Cytochrome P450 3A4
  AC50: 6.31 µM (inconclusive)
[11]
  AC50: 4.31 µM (active)
Cytochrome P450 2C19
  AC50: 3.16 µM (inconclusive)
Cytochrome P450 2C9
  AC50: 7.94 µM (inconclusive)

## Cc1ccc(OCC(=O)NNC(=S)NC(=O)c2ccc(Br)o2)c(C)c1
[9]
  EC50: < 0.06 µM (active)
Streptococcus
  EC50: 1.33 µM (active)
Vero
  CC50: > 25 µM (active)
[5]
  EC50: 13.3 µM (active)

## CC1=C(C)CC(C(=O)Nc2cccc(Cl)c2)C(C(=O)O)C1 (configuration not stated)
Leucine aminopeptidase
  IC50: 2.38 µM (active)

## COc1ccc(S(=O)(=O)NC2CC3CCC2C3)cc1Br (configuration not stated)
[11]
  AC50: 5.25 µM (active)

## COc1ccccc1N1C(=O)NC(=O)/C(=C/c2ccc3c(c2)Cc2ccccc2-3)C1=O
Genome polyprotein
  IC50: 59.4 µM (active)

## CN1C(=O)/C(=C/c2cccc([N+](=O)[O-])c2)C(=O)N1c1ccccc1
[12]
  AC50: 0.533 µM (active)
Genome polyprotein
  IC50: 26.3 µM (active)

## Clc1ccc(Nc2nc[nH]n2)cc1
Cytochrome P450 3A4
  AC50: 31.6 µM (inconclusive)
Cytochrome P450 2C19
  AC50: 14.1 µM (inconclusive)
Leucine aminopeptidase
  IC50: 1.53 µM (active)

## Oc1c2c(nc3c(-c4ccc(Cl)cc4)cnn13)CCC2
[6]
  CC50: 5.23 µM (active)
[9]
  EC50: 4.33 µM (active)
Streptococcus
  EC50: 12.3 µM (active)
[7]
  CC50: 10.7 µM (active)
[8]
  CC50: 12.7 µM (active)
Streptokinase A
  EC50: > 150 µM (not active)
cells
  IC50: 12.2 µM (active)

## Cc1ccc(S(=O)(=O)c2cnc(-c3ccccc3)nc2N2CCN(C)CC2)cc1
[5]
  EC50: 6.68 µM (active)

## O=C1Nc2ccc(F)cc2C12Nc1ccccc1-c1nnc(SCc3ccccc3)nc1O2 (configuration not stated)
Genome polyprotein
  IC50: 46.2 µM (active)

## O=C(COC(=O)CC1CC2CCC1C2)Nc1cc([N+](=O)[O-])ccc1F (configuration not stated)
Fatty acid synthase [13]
  IC50: 4.15 µM (active)
Fatty acid synthase [14]
  IC50: 3.72 µM (active)

## Cc1ccc(-n2c(SCC(=O)OC(C)C)nnc2-c2ccco2)cc1
Leucine aminopeptidase
  IC50: 31.2 µM (active)

## COc1cccc(NC(=O)CSc2nc3c(oc4ccccc43)c(=O)[nH]2)c1
Leucine aminopeptidase
  IC50: < 1 µM (active)

## CCOC(=O)/C(C#N)=C\C=C1C=CN(C)C=C1
Leucine aminopeptidase
  IC50: 90 µM (active)

## CCc1nc2ccccc2n1Cc1ccccc1OC
[5]
  EC50: 10.6 µM (active)

## Cc1cccc(-c2cc3nc(C)c(C)c(NCCCn4ccnc4)n3n2)c1
[6]
  CC50: 20.6 µM (active)
[7]
  CC50: > 20 µM (active)
[8]
  CC50: 16.4 µM (active)
cells
  IC50: 9.68 µM (active)

## Cc1ccccc1[N+]1=C2CCCCN2C(O)(c2cccs2)C1 (configuration not stated)
[5]
  EC50: 2.37 µM (active)

## O=C(CC1C[C@H](C(=O)N2CCOCC2)[C@@]2(CCC3CCCC3)c3[nH]c4ccccc4c3CCN2C1=O)NCCC1=CCCCC1 (some centres not stated)
Fatty acid synthase [13]
  IC50: 22.2 µM (inactive)
Fatty acid synthase [14]
  IC50: 35.1 µM (inactive)

## Cc1ccc(C(=O)CN(CCC(=O)O)S(=O)(=O)c2ccc([N+](=O)[O-])cc2)cc1
Fatty acid synthase [13]
  IC50: 5.88 µM (active)
Fatty acid synthase [14]
  IC50: 3.55 µM (active)

## C/C(=N\NC(=O)c1ccccc1NC(=O)c1ccc(Cl)cc1)c1ccncc1
BJ [1]
  EC50: 1.21 µM (inconclusive)
[2]
  EC50: 1.12 µM (active)
INS1
  AC50: 0.902 µM (active)
BJ [3]
  EC50: 0.856 µM (inconclusive)
BJ [4]
  EC50: 2.18 µM (inconclusive)

## O=C(O)c1cccc(-c2ccc(/C=N/NC(=O)C3COc4ccccc4O3)o2)c1 (configuration not stated)
Leucine aminopeptidase
  IC50: 45.6 µM (active)

## O=C(CCC(=O)Nc1cccc(Cl)c1)N/N=C/c1cc([N+](=O)[O-])ccc1O
Fatty acid synthase [13]
  IC50: 4.21 µM (active)
Fatty acid synthase [14]
  IC50: 5.71 µM (active)
